Data set [1] relates to formation of advanced glycation end products (AGEs). In words: Antiglycation activity (BSA-glucose, AGE fluorescence). The data set is classed as biochemical. The settings on record: for Antiglycation activity, M ± SEM: 24 h at 60 °C. On the procedure:
The glycation reaction was carried out in a phosphate buffer solution of 0.05 M, pH 7.4. Composition of the reaction medium: 0.36 M glucose solution and 1 mg/mL BSA (fraction V). The test compounds were dissolved in 99% DMSO (final concentration in the reaction medium ~3%). The activity of compound 1 was studied in the concentration range of 1000–0.1 μM, and the activity of aminoguanidine was determined at concentrations of 10,000–1000 μM. Control samples contained an equivalent volume of solvent. The samples were incubated for 24 h at 60 °C.
Data registration was carried out by the spectrofluorimetric method, determining AGE by specific fluorescence at excitation/emission wavelengths of 370/440 nm (spectrofluorimeter M 200 PRO, TECAN Austria GmbH, Grödig, Austria).
In order to exclude false positive results for compounds suppressing AGE fluorescence due to interference, the obtained data were logarithmically normalized according to Equation (4):Fly(log) = 10^(log10(Exp)−log10(Blank)) − 1(4) where Fly(log) is the normalized AGE fluorescence intensity, log10(Exp) and log10(blank) are the decimal logarithms of the actual fluorescence levels of glycated and corresponding non-glycated samples (both containing the test compound and controls).
The activity of other compounds (both non-fluorescent and fluorescent at the wavelengths used) was expressed by the Equation (5):Fly(lin) = Exp − Blank(5) where Fly(lin) is the fluorescence intensity of AGEs, Exp and blank are the actual fluorescence levels of glycated and corresponding non-glycated samples (both those containing the test compound and controls).
Determination of activity expressed as % suppression of fluorescence of AGE, was made according to the Equation (6):% = 100 − (Fly(Exp) × 100/Fly(Contr))(6) where Fly(Exp) and Fly(Contr) are the CPG fluorescence intensity of experimental and control samples, respectively (log-normalized or non-log-normalized).

Data set [2] is described as follows: MTT test with HepG2 cells, 48 h. The data set is classed as cell-based. The settings on record: human, HepG2 cells; HepG2, 48 h incubation, MTT. On the procedure: (§1) Cytotoxic properties of 1 are unusual, so an additional cytotoxicity assay with HepG2 cells was carried out and CC50 values were estimated (Figure 5).
(§2) The fact that ligand 1 itself has cytotoxic properties can be interpreted as the existence of a pharmacological target, specific to 1. The detection of potential targets for ligand 1 involves research on cell cycle influence and many other assays, and will be carried out in future studies.
(§3) Figure 5 An effect of compound 1 at concentrations of 0.001–100 µM on the metabolic activity (viability) of HepG2 cells during 48 h incubation in the MTT test.
For orientation: Formazan colour is commonly taken as a measure of viable cells.

The test system of data set [3] is HepG2 cells. In words: MTT test with HepG2 cells, 48 h. It is filed as cell-based. The settings on record: HepG2, 48 h. How it is done:
as §1, §2, §3

A word on the IC50: it is the midpoint of a concentration-inhibition curve. Read a high IC50 as weaker potency. What is called CC50 is the concentration that lowers cell viability or growth by half. The low end stands for harm at low concentration, the high end for better tolerance by the cells. The melting point is the temperature of the solid-liquid transition. Compound `CC(C)(C)c1cc(C(=O)N/N=C/c2ccccc2O)cc(C(C)(C)C)c1O` [Compound 1, Di-tert-butyl-4-hydroxy-N′-(2-hydroxybenzylidene)-benzohydrazine] had a melting point of 265 to 269 °C. Besides, the IC50 in data set [1] was 2.8 µM. In addition, the “Antiglycation activity, M ± SEM” value in data set [1] (concentration 0.3 µM) is −1.9 ± 1.4%. Besides, the “Antiglycation activity, M ± SEM” value in data set [1] (concentration 1 µM) is given as 0.6 ± 2.3%. The “Antiglycation activity, M ± SEM” value in data set [1] (concentration 3 µM) is recorded as 53.9 ± 2.5%. For the same compound, the “Antiglycation activity, M ± SEM” value in data set [1] (concentration 10 µM) is given as 60.1 ± 1.1%. Also, in data set [1] (concentration 30 µM), the “Antiglycation activity, M ± SEM” value worked out at 62.0 ± 0.7%. For the same compound, the “Antiglycation activity, M ± SEM” value in data set [1] (concentration 100 µM) came out at 61.6 ± 0.5%. The “Antiglycation activity, M ± SEM” value in data set [1] (concentration 300 µM) is reported as 73.2 ± 1.9%. In addition, the “Antiglycation activity, M ± SEM” value in data set [1] (concentration 1000 µM) stood at 70.2 ± 8.0%. Half-maximal cytotoxicity in data set [2] (CC50 at 48 h) was put at 12.4 ± 2 µM. In addition, the “Suppression of vital activity relative to the control” value in data set [3] (3 µM) came out at 25.8 ± 4.0%. Further, in data set [3] (MTT), the “Minimal concentration that significantly suppresses vital activity” value is 3 µM.
